Tests used:
Assay type in all cases: cell-based
[1] = test system: PC-9 (KRAS wild type human lung adenocarcinoma cell line); test: KRAS 3D-Cell Proliferation Assay, PC-9 (Example 503); details: 168 h, PC-9 3D culture, 7 days, CellTiter-Glo 3D, read-out: Prolif PC9 3D ATP IC50
Description: Example 503: KRAS 3D-Cell Proliferation Assays. Cellular potencies of compounds are assessed by evaluating inhibition of proliferation in 3D cultures of homozygous mutant KRAS G12D human pancreatic cell lines (AsPC-1 and HPAC) as compared to a KRAS wild type human lung adenocarcinoma cell line (PC-9 and/or H1975). Cells are seeded into 384-well black round-bottom, ultra-low attachment assay plates in 50 uL cell growth medium (RPMI-1640 with 10% fetal bovine serum and 2 mM L-glutamine). After overnight incubation at 37° C. and 5% CO2, compounds solubilized in DMSO are added as dilution series to the wells in a total volume of 150 nL (0.3% DMSO final). The cells are incubated for 7 days at 37° C. and 5% CO2. Cell proliferation is quantitated by addition of 40 uL/well of CellTiter-GloÒ 3D (Promega), and the well contents are mixed 20× at high speed using liquid handling automation workstation (Bravo with 384-well head) and centrifuged at 1500 rpm for 2 minutes to eliminate bubbles. This reagent in combination with mechanical disruption releases the cellular ATP to promote activity in a luciferase-based enzyme/substrate chemiluminescent detection system. After a 30-minute incubation under ambient conditions with shaking and an additional 10 minutes without shaking, the luminescence is read on a plate reader (e.g., EnVision [PerkinElmer]). The results are normalized to percent inhibition based on the following control samples: DMSO (0% inhibition) and 1 μM staurosporine (100% inhibition). The normalized luminescence results are plotted against compound concentration, and the data are fit to a 4-parameter Hill equation to determine the IC50 values.

[2] = test system: AsPC-1 (homozygous mutant KRAS G12D human pancreatic cell line); test: KRAS 3D-Cell Proliferation Assay, AsPC-1 (Example 503); details: Homo sapiens, ASPC1, 168 h, AsPC-1 3D culture, 7 days, CellTiter-Glo 3D; read-out: Prolif AsPC-1 3D ATP IC50
Method in brief: (§1)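 IC50 values derive from 4-parameter Hill fits of normalized luminescence, where DMSO sets 0% and 1 μM staurosporine 100% inhibition. 3D cultures in RPMI-1640 with 10% fetal bovine serum were exposed to compound for 7 days before CellTiter-Glo 3D lysis.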

[3] = test system: HPAC (homozygous mutant KRAS G12D human pancreatic cell line); test: KRAS 3D-Cell Proliferation Assay, HPAC (Example 503); details: Homo sapiens, HPAC, 168 h, HPAC 3D culture, 7 days, CellTiter-Glo 3D; read-out: Prolif HPAC 3D ATP IC50
Method in brief: as §1

[4] = test system: H1975 (KRAS wild type human lung adenocarcinoma cell line); test: KRAS 3D-Cell Proliferation Assay, H1975 (Example 503); details: Homo sapiens, NCI-H1975, 168 h, H1975 3D culture, 7 days, CellTiter-Glo 3D; read-out: Prolif H1975 3D ATP IC50
Method in brief: as §1

| Compound | IC50 [1] | IC50 [2] | IC50 [3] | IC50 [4] |
| --- | --- | --- | --- | --- |
| Cc1cc(N)nc(-c2nc3c4c(nc(OC[C@]56CCN5CC(F)(F)C6)nc4c2F)N2C[C@H]4CC[C@H](N4)[C@H]2[C@H](C)O3)c1C(F)(F)F (single isomer, unassigned) [Compound 45] | ≥ 20000 nM | – | – | – |
| C[C@@H]1Oc2nc(-c3nc(N)ccc3C(F)(F)F)c(F)c3nc(OC[C@@]45CCCN4C[C@H](F)C5)nc(c23)N2C[C@H]3CC[C@H](N3)[C@@H]12 [Compound 85, 6-((5S,5aS,6S,9R)-1-fluoro-12-(((2R,7aS)-2-fluorotetrahydro-1H-pyrrolizin-7a(5H)-yl)methoxy)-5-methyl-5a,6,7,8,9,10-hexahydro-5H-4-oxa-3,10a,11,13,14-pentaaza-6,9-methanonaphtho[1,8-ab]heptalen-2-yl)-5-(trifluoromethyl)pyridin-2-amine] | ≥ 20000 nM | 975 nM | – | – |
| C[C@@H]1Oc2nc(-c3nc(N)c(F)cc3C(F)(F)F)c(F)c3nc(OC[C@@]45CCCN4C[C@H](F)C5)nc(c23)N2C[C@H]3CC[C@H](N3)[C@@H]12 [Compound 84, 3-Fluoro-6-((5S,5aS,6S,9R)-1-fluoro-12-(((2R,7aS)-2-fluorotetrahydro-1H-pyrrolizin-7a(5H)-yl)methoxy)-5-methyl-5a,6,7,8,9,10-hexahydro-5H-4-oxa-3,10a,11,13,14-pentaaza-6,9-methanonaphtho[1,8-ab]heptalen-2-yl)-5-(trifluoromethyl)pyridin-2-amine] | ≥ 20000 nM | 1160 nM | – | – |
| C[C@@H]1Oc2nc(-c3cccc4cccc(Cl)c34)c(F)c3nc(OCC45CCN4CC(F)(F)C5)nc(c23)N2C[C@H]3CC[C@H](N3)[C@@H]12 (single isomer, unassigned) [Compound 21] | 7700 nM | – | 698 nM | 12200 nM |
| Cc1cc(N)c(F)c(-c2nc3c4c(nc(OC[C@@]56CCN5CC(F)(F)C6)nc4c2F)N2C[C@H]4CC[C@H](N4)[C@H]2[C@H](C)O3)c1C(F)(F)F [Compound 92, 3-((5S,5aS,6S,9R)-12-(((S)-3,3-Difluoro-1-azabicyclo[3.2.0]heptan-5-yl)methoxy)-1-fluoro-5-methyl-5a,6,7,8,9,10-hexahydro-5H-4-oxa-3,10a,11,13,14-pentaaza-6,9-methanonaphtho[1,8-ab]heptalen-2-yl)-2-fluoro-5-methyl-4-(trifluoromethyl)aniline] | 11200 nM | – | – | – |
| Cc1cc(N)c(F)c(-c2nc3c4c(nc(OCC5(CN6CCOCC6)CC5)nc4c2F)N2C[C@H]4CC[C@H](N4)[C@H]2[C@H](C)O3)c1C(F)(F)F [Compound 226, 2-Fluoro-3-((5S,5aS,6S,9R)-1-fluoro-5-methyl-12-((1-(morpholinomethyl)cyclopropyl)methoxy)-5a,6,7,8,9,10-hexahydro-5H-4-oxa-3,10a,11,13,14-pentaaza-6,9-methanonaphtho[1,8-ab]heptalene-2-yl)-5-methyl-4-(trifluoromethyl)aniline] | – | 1.2 nM | 0.86 nM | 568 nM |
| C[C@@H]1Oc2nc(-c3cc(N)c(F)c(Cl)c3CC(F)F)c(F)c3nc(OC[C@@]45CCCN4C[C@H](F)C5)nc(c23)N2C[C@H]3CC[C@H](N3)[C@@H]12 [Compound 186, 3-Chloro-4-(2,2-difluoroethyl)-2-fluoro-5-((5S,5aS,6S,9R)-1-fluoro-12-(((2R,7aS)-2-fluorotetrahydro-1H-pyrrolizin-7a(5H)-yl)methoxy)-5-methyl-5a,6,7,8,9,10-hexahydro-5H-4-oxa-3,10a,11,13,14-pentaaza-6,9-methanonaphtho[1,8-ab]heptalene-2-yl)aniline] | – | 8.9 nM | 2.58 nM | 1090 nM |
| Cc1c(F)c(N)cc(-c2nc3c4c(nc(OCC5(CN6CC7(COC7)C6)CC5)nc4c2F)N2C[C@H]4CC[C@H](N4)[C@H]2[C@H](C)O3)c1C(F)(F)F [Compound 174, 5-((5S,5aS,6S,9R)-12-((1-((2-Oxa-6-azaspiro[3.3]heptan-6-yl)methyl)cyclopropyl)methoxy)-1-fluoro-5-methyl-5a,6,7,8,9,10-hexahydro-5H-4-oxa-3,10a,11,13,14-pentaaza[6,9]methanonaphtho[1,8-ab]heptalene-2-yl)-2-fluoro-3-methyl-4-(trifluoromethyl)aniline] | – | 1.3 nM | 3.86 nM | 227 nM |

Reference: patent publication US12338256B2, “Aza-tetracyclic oxazepine compounds and uses thereof” (Genentech, Inc., priority 2022, dated 2025)
